From patent publication US20120283174A1, “ANTIBIOFILM GLYCOPEPTIDES” (ORAL HEALTH AUSTRALIA PTY. LTD., priority 2009, published 2012)
Marks after values point to notes of the source that are not given here.

Assays:
S. mutans biofilms = experiment: Flow cell culture and CSLM analysis of 16 h S. mutans biofilms, single 10 min treatment; assay type: cell-based, Streptococcus mutans Ingbritt
Description: (§1) Flowcell culture and CSLM analysis of monospecific biofilm The biofilm culture of S. mutans in flow cells was similar to that described by Wen et al. (2006) with several modifications. A 3-channel flow cell system (Stovall Life Science, Greensboro, N.C., USA) was modified with stopcocks for inoculation, testing and staining of the bacterial biofilms. All parts were assembled and 0.5% sodium hypochlorite was pumped in and left overnight. Sterile water (200 mL) was then used to flush the system prior to the addition of growth medium. The system was inoculated with 1 mL of an exponentially growing S. mutans Ingbritt culture diluted to a cell density of 1×10^7 cells/mL. The system was incubated for 1 h prior to constant flow (0.2 mL/min) of 25% ASM (ASM; 2.5 g/L type II porcine gastric mucin, 2.0 g/L bacteriological peptone, 2.0 g/L tryptone, 1.0 g/L yeast extract, 0.35 g/L NaCl, 0.2 g/L KCl, 0.2 g/L CaCl2 and 1 mg/L haemin, pH 7.0) supplemented with 2.5 mM DTT and 0.5 g/L sucrose.. After 16 h, 1 mL of purified glycosylated x-casein(106-169) (KCG); KCGP(f106-169); KCGPZ(f106-169) (KCGPZ(f106-169); 10 mg/mL KCGP(f106-169) and 20 mM ZnCl2); 20 mM ZnCl2; 0.1% chlorhexidine digluconate or sterile water was injected into each channel of the system and incubated for 10 min, the flow of 25% ASM was then resumed for 10 min prior to staining. For determination of the effects of treatments on early stage biofilms the system was incubated for 6 h after inoculation, treated with 1 mL of test solutions for 10 min and the flow of 25% ASM resumed for another 16 h to observe recovery of the biofilm. BacLight LIVE/DEAD stain (Molecular Probes) was then used to stain the biofilm in situ.
(§2) Confocal laser scanning microscopy (CLSM) of the bacterial biofilms was carried out on a Meta 510 Confocal Microscope with an inverted stage (Zeiss). Horizontal (xy) optodigital sections, each 2 μm thick over the entire thickness of the biofilm (z) were imaged using a 63× objective at 512×512 pixel (0.28 μm per pixel), with each frame at 143.86 μm (x)×143.86 μm (y). To determine reproducibility across the biofilm 5 images at random positions were obtained at wavelengths of 488 nm and 568 nm for each channel and 3 biological replicates were used. All images obtained were analysed using Comstat software (Heydorn et al., 2000).
(§3) Data treatment and statistical analyses. The biometric data were analyzed using a two-factor analysis of variance (ANOVA) model with treatment included as a fixed factor and experiment as a random blocking factor to investigate the effect of KCGP(f106-169), KCG, KCGPZ(f106-169), Zinc and chlorhexidine on established biofilms. If treatment differences were significant, post hoc comparisons of treatment differences were performed using the Tukey posttest. Model fits were checked by residual plots, normality was investigated using normal probability plots and the Kolmogorov-Smirnov test and homogeneity of error variances was tested using Levene's test. When the error variances were heterogeneous a natural logarithm transformation of the data was used to stabilize the treatment group variances. Treatments were then compared using ANOVA on the transformed data. The biometric data obtained from the experiments investigating the effect of KCGPZ(f106-169) on 6 h S. mutans biofilms was analysed using a Paired Samples T-Test. All analyses were conducted using SPSS statistical software (version 17.0, SPSS Inc., Chicago, Ill.).

[1] = test system: S. sanguis cells grown as a biofilm; settings: 0.2% w/v, 5 minute exposure, biofilm in a CDFF; cited from earlier work
S. mutans biofilm = experiment: Early stage (6 h) S. mutans flow cell biofilms, 10 min treatment, 16 h recovery, CSLM; assay type: cell-based, Streptococcus mutans Ingbritt; parameters: key to Surface to biovolume ratio / Roughness coefficient (dimensionless, range: zero-infinity) / Biovolume / Average thickness: —: No significant amount of biofilms detected after 16 h recovery; settings: 6 h biofilm
Description: as §1, §2, §3

[2] = 0.12% mouthwash, over a 12 week period; cited from earlier work
six species oral biofilm = settings: 0.2% w/v, 1 and 5 minutes of exposure; cited from earlier work
[3] = 0.1% (Table 1), 16 h biofilm, single 10 min treatment
[4] = 0.1%, 16 h biofilm, single 10 min treatment
[5] = 0.1%, 16 h biofilm, single 10 min treatment, listed as Chlorhexidine digluconate
[6] = 0.1% chlorhexidine digluconate, 10 min treatment

## [H]/N=C(\N/C(=N/[H])NCCCCCCNC(=N)NC(=N)Nc1ccc(Cl)cc1)Nc1ccc(Cl)cc1 [Chlorhexidine, chlorhexidine digluconate]
S. mutans biofilms; [3]
  reduction of average thickness: 59%
  reduction of total biomass: 53%
S. mutans biofilms; [4]
  Average thickness: 3.02 ± 0.66^a μm
  Biovolume: 1.82 ± 0.60^a μm^3/μm^2
  Roughness coefficient (dimensionless, range: zero-infinity): 1.51 ± 0.12^a
  Surface to biovolume ratio: 2.36 ± 1.24^ab μm^2/μm^3
S. mutans biofilms; [5]
  Average thickness: Significant reduction
  Biovolume: Significant reduction
S. mutans biofilms; 0.1%, 16 h biofilm, single 10 min treatment, listed as chlorhexidine
  Surface to biovolume ratio: nonsignificant differences
S. mutans biofilms; 16 h biofilm after treatment, qualitative
  dead S. mutans cells by propidium iodide staining (BacLight Live/Dead, FIG. 5): qualitatively higher number of dead S. mutans cells compared with KCG or KCGPZ(f106-169)
S. mutans biofilms; 16 h biofilm, single 10 min treatment, concentrations as in Table 1
  disruption / inhibition of S. mutans biofilms, comparison between treatments in words: not significantly different to those produced by ZnCl2, 2.4 mg/mL purified KCG or 10 mg/mL KCGP(f106-169)
[1]
  reduction in viable S. sanguis cells: ~2 log10
S. mutans biofilm; [6]
  Average thickness: —^b
  Biovolume: —^b
  Roughness coefficient (dimensionless, range: zero-infinity): —^b
  Surface to biovolume ratio: —^b
S. mutans biofilm; single 10 min treatment
  effect on early S. mutans biofilms in words: substantially reducing the biofilms, which had not recovered after 16 h
[2]
  reduction of gingival inflammation: 25%
  reduction of plaque accumulation: 28%
Six species oral biofilm
  effect on six species oral biofilm: no significant difference

## [Cl-].[Cl-].[Zn+2] [ZnCl2]
S. mutans biofilms; 20 mM, 16 h biofilm, single 10 min treatment
  Roughness coefficient (dimensionless, range: zero-infinity): 1.54 ± 0.07^ab
